Target: T1, progesterone receptor (PR, PRb) (Homo sapiens, UniProt P06401)
T1 construct: gene PGR; wild type PRb expressed in PR-negative U2OS or TYML cells
T1 sequence (P06401 1-933): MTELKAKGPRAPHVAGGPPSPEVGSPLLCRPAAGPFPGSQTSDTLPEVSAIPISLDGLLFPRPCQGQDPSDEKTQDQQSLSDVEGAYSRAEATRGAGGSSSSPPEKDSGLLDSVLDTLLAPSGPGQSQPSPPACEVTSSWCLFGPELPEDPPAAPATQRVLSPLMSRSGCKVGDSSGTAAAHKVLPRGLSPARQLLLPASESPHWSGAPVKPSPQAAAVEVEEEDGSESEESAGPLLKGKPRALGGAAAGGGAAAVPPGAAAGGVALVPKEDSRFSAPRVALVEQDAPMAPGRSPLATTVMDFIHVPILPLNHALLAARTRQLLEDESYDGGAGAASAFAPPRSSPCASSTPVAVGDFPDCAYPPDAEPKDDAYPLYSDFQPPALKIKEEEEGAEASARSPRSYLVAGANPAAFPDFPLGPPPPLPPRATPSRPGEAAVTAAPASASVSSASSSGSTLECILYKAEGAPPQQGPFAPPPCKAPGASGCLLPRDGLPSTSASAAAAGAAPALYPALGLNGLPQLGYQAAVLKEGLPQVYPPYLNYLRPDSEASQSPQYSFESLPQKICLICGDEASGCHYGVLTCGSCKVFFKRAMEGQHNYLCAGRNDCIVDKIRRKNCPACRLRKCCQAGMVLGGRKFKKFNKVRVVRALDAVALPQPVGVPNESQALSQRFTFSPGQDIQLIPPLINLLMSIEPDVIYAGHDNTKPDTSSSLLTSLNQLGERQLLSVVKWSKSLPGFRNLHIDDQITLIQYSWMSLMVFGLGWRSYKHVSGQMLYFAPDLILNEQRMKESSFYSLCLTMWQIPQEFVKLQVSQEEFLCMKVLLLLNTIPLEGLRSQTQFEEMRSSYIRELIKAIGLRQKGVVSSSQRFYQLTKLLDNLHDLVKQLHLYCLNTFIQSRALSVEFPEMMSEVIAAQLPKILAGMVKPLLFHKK
Assay: PR S294 phosphorylation and MMTV-luc/target gene induction by […] P4 in PR-negative cells transfected with wild type PRb
Type: cell-based

CC(=O)[C@H]1CC[C@H]2[C@@H]3CCC4=CC(=O)CC[C@]4(C)[C@H]3CC[C@]12C [P4, progesterone]
PR S294 phosphorylation and MMTV-luc/target gene induction by 10 nM P4 in PR-neg: only the wtPR-expressing cells activated the ERK kinase and led to PR phosphorylation
